In PMC4639711, “The Helicase Activity of Hyperthermophilic Archaeal MCM is Enhanced at High Temperatures by Lysine Methylation” (Frontiers in Microbiology, 2015):

What was measured:
Format in all cases: biochemical
aKMT4 [1] = molecular target: T1, aKMT4 (Saccharolobus islandicus, UniProt F0NBH8, G38R); test: 3H-methyl incorporation into sisMCM, SDS-PAGE and autoradiography; conditions: methyl acceptor sisMCM (2 μM), 50°C, labelled compound, methyltransferase-deficient mutant, no activity seen
T1 construct: gene SiRe_1449; recombinant, overexpressed in E. coli BL21(DE3) CodonPlus RIL; purified as in Niu et al. 2013; apparent mass 18 kDa
T1 sequence (F0NBH8 whole entry G38R): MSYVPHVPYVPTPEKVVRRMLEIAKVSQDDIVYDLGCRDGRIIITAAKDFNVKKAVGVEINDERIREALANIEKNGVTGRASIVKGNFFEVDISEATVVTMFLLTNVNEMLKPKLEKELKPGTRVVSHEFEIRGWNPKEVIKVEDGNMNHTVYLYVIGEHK

aKMT4 [2] = molecular target: T2, aKMT4 (Saccharolobus islandicus, UniProt F0NBH8); test: as above; conditions: methyl acceptor sisMCM (2 μM), also automethylation, 50°C, labelled compound
T2 construct: gene SiRe_1449
T2 sequence (F0NBH8 whole entry): as the sequence (F0NBH8 whole entry G38R) above, with R38G counted along it

sisMCM (MCM) = molecular target: T3, sisMCM (MCM) (Saccharolobus islandicus, UniProt F0NF15, K280M/K281M); test: ATPase assay, [γ-32P]ATP, PEI cellulose TLC; conditions: 1 mM ATP, 100 nM protein, 10 mM magnesium acetate, pH 8.0, 65°C, 30 min; labelled compound; methylation-mimic mutant
T3 construct: recombinant, pGEX-6P-1 in E. coli BL21(DE3) CodonPlus RIL; GST tag removed with PreScission protease; apparent mass 75 kDa; hexamer
T3 sequence (F0NF15 entry or part of it K280M/K281M): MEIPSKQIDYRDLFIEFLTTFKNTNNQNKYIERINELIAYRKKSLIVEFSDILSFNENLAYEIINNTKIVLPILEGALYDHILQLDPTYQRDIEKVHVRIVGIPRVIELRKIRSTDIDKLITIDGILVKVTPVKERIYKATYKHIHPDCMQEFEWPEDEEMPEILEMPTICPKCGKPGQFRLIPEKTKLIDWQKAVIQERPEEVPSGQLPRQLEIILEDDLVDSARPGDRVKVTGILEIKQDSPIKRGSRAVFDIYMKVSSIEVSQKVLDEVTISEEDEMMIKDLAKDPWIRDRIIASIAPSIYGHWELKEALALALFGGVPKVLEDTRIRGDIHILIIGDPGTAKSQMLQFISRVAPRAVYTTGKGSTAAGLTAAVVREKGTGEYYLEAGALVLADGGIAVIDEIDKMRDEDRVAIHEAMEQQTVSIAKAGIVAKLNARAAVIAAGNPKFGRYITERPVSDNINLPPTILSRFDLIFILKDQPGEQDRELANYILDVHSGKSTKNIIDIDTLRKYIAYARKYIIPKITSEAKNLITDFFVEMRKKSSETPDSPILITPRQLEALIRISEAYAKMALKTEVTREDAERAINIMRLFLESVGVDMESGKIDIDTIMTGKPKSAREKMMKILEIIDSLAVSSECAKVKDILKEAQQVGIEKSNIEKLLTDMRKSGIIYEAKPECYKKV

Row | Structure (SMILES) | 3H-methyl incorporation into sisMCM, SDS-PAGE and autoradiography (aKMT4 [1]) | 3H-methyl incorporation into sisMCM, SDS-PAGE and autoradiography (aKMT4 [2]) | ATPase assay, [γ-32P]ATP, PEI cellulose TLC (sisMCM (MCM))
1 | C[S+](CC[C@H](N)C(=O)O)C[C@H]1O[C@@H](n2cnc3c(N)ncnc32)[C@H](O)[C@@H]1O (stereo partly drawn) [AdoMet] | no tritium incorporation was observed in the presence of a methyltransferase-deficient mutant aKMT4-G38R | We noticed potent ^3H-methyl incorporation into sisMCM protein as well as aKMT4 itself | –
2 | Nc1ncnc2c1ncn2[C@@H]1O[C@H](COP(=O)(O)OP(=O)(O)OP(=O)(O)O)[C@@H](O)[C@H]1O [ATP] | – | – | As for ATPase, K280M/K281M showed moderately decreased activity as wild type
